Earlier results, collected in patent publication US6066339A (priority 1997, dated 2000).

Tested on: μ-opioid
Conditions: animal experiments

SMILES: CN1CC[C@]23c4c5ccc(O)c4O[C@H]2[C@@H](O[C@@H]2O[C@H](C(=O)O)[C@@H](O)[C@H](O)[C@H]2O)C=C[C@H]3[C@H]1C5 [morphine-6-glucuronide]
- μ-opioid agonism: potent μ-opioid agonist
